Earlier results, collected in patent US20190282591A1, “FINASTERIDE AND SILDENAFIL COMPOSITIONS AND APPLICATIONS” (BLUE GOOSE DRUGS INC., priority 2018, published 2019).

How the values were obtained:
[1] = active metabolite accounts for about one-half
[2] = tested on: dihydrotestosterone (DHT) levels
[3] = target: T1, 5α-reductase type I isoenzyme (Homo sapiens, UniProt P18405); settings: 5α-reductase type I vs type II
T1 sequence (P18405 1-259): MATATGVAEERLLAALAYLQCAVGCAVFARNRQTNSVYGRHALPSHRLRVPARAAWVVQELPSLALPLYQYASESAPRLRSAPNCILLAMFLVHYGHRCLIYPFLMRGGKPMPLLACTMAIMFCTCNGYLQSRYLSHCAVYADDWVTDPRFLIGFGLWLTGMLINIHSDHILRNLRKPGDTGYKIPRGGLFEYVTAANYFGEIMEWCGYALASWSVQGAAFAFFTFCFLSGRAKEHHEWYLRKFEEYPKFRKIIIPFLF

[4] = target: T2, 5β-reductase (AKR1D1) (Homo sapiens, UniProt P51857); settings: compared with 5α-reductase type I
T2 sequence (P51857 1-326): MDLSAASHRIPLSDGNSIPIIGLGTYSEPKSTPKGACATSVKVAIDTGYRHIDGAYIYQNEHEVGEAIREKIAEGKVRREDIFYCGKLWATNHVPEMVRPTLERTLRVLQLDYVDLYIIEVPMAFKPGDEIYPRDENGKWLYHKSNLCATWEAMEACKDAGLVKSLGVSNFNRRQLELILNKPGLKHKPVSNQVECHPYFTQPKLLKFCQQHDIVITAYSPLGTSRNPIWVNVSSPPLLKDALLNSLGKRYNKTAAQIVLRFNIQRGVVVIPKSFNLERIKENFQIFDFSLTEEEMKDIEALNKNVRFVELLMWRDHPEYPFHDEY

CCCc1nn(C)c2c(=O)[nH]c(-c3cc(S(=O)(=O)N4CCN(C)CC4)ccc3OCC)nc12.O=C(O)CC(O)(CC(=O)O)C(=O)O [Sildenafil citrate, 5-[2-ethoxy-5-(4-methylpiperazin-1-yl)sulfonylphenyl]-1-methyl-3-propyl-4H-pyrazolo[4,3-d]pyrimidin-7-one; 2-hydroxypropane-1,2,3-tricarboxylic acid]
bioavailability after oral administration [1]: 40%

C[C@]12C=CC(=O)N[C@@H]1CC[C@@H]1[C@@H]2CC[C@]2(C)[C@@H](C(=O)Nc3cc(C(F)(F)F)ccc3C(F)(F)F)CC[C@@H]12 [dutasteride]
reduction of DHT levels in the entire body ([2]; entire body): more than 99%

CC(C)(C)NC(=O)[C@H]1CC[C@H]2[C@@H]3CC[C@H]4NC(=O)C=C[C@]4(C)[C@H]3CC[C@]12C [finasteride, (5α,17β)-N-(1,1-dimethylethyl)-3-oxo-4-azaandrost-1-ene-17-carboxamide]
decrease in prostate DHT levels ([2]; prostate, where type II isoenzyme predominates): 85 to 90% | decrease in serum DHT levels ([2]; serum): 65 to 70% | less inhibitory potency for type I as compared to type II [3]: more than 100 fold | affinity for 5β-reductase relative to 5α-reductase [4]: an order of magnitude less than 5α-reductase type I
